In experiment [1] the test system is STZ mice. Briefly: Blood glucose in STZ mouse pancreatic islet β-cell injury model (Example 1). In kind it is in vivo. The conditions noted are these: STZ ICR mice; single agent 0.02 g/kg per day by gavage, two weeks; 1 h after last administration; mean ± SD. An excerpt: Effects of limonoid compound, acarbose or combination thereof on blood glucose in mouse pancreatic islet (3-cell injury model […]
Gavage doses: the gavage dose was 0.02 g/kg per day for the limonin group, the gavage dose was 0.02 g/kg per day for the isolimonic acid group, the gavage dose was 0.02 g/kg per day for the limonin glycoside group, the gavage dose was 0.02 g/kg per day for the isolimonic acid glycoside group, the gavage dose of acarbose was 0.02 g/kg per day for the acarbose group, limonin at a dose of 0.01 g/kg and acarbose at a dose of 0.01 g/kg were simultaneously gavaged per day for the limonin/acarbose combination group, isolimonic acid at a dose of 0.01 g/kg and acarbose at a dose of 0.01 g/kg were simultaneously gavaged per day for the isolimonic acid/acarbose combination group, limonin glycoside at a dose of 0.01 g/kg and acarbose at a dose of 0.01 g/kg were simultaneously gavaged per day for the limonin glycoside/acarbose combination group, isolimonic acid glycoside at a dose of 0.01 g/kg and acarbose at a dose of 0.01 g/kg were simultaneously gavaged per day for the isolimonic acid glycoside/acarbose combination group, the gavage volume was 10 mL/kg, and the normal group and the model group were administrated with 10 mL/kg of distilled water. […] The data were expressed as mean and standard deviation. […]

Experiment [2] relates to STZ mice. Briefly: Blood glucose in STZ mouse pancreatic islet β-cell injury model (Example 3). The experiment is classed as in vivo. The conditions noted are these: STZ ICR mice; single agent 0.1 g/kg per day by gavage, two weeks; 1 h after last administration; mean ± SD. An excerpt: Effects of limonoid compound, acarbose or combination thereof on blood glucose in mouse pancreatic islet (β-cell injury model In this example, a mouse pancreatic islet (β-cell injury model was established by modeling ICR mice with streptozotocin (STZ) (Li Nan et al., Protective effect of pine pollen on kidney damage in diabetic nephropathy mice, Science and Technology Review, 2014, 32 (4/5): 95-99), and used to complete the evaluation of hypoglycemic effect in animals (this model could simulate pancreatic islet (β-cell damage state of type I and type II diabetics). The limonoid compound was selected from the group consisting of […], and […] glycoside, and acarbose single administration group, […] single administration group, […] single administration group, […] glycoside singe administration group, and respective combination thereof with acarbose administration groups were set. Conditions of experimental feeding: ICR mice (20±2 g), aged 6 weeks, purchased from Zhejiang Academy of Medical Sciences, and subjected to experimental feeding after 7 days of preliminary feeding. […] The data were expressed as mean and standard deviation. The data before and after were analyzed by t-test, and P<0.05 was considered statistically significant.

`C[C@H]1O[C@H](O[C@H]2[C@H](O)[C@@H](O)[C@@H](O[C@H]3[C@H](O)[C@@H](O)C(O)O[C@@H]3CO)O[C@@H]2CO)[C@H](O)[C@@H](O)[C@@H]1N[C@H]1C=C(CO)[C@@H](O)[C@H](O)[C@H]1O` (some centres unmarked) [Acarbose, acarbose]: the Blood glucose value in the experiment on STZ mice [1] is recorded as 22.1 ± 3.4 mmol/L; in the experiment with STZ mice [2], 20.6 ± 4.5 mmol/L.

The record behind these values is patent publication US20220296566A1, “COMBINATION PRODUCT CONTAINING LIMONOID COMPOUND AND ALPHA-GLUCOSIDASE INHIBITOR” (ZHEJIANG YANGSHENGTANG INSTITUTE OF NATURAL MEDICATION CO., …, priority 2019, published 2022).
